Reference: PubChem BioAssay (NCI)
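Each compound was tested at five concentrations against cells in 96-well plates for 48 hours. Abbreviation: GI50, concentration required for 50% inhibition of growth. At the TGI there is no net growth.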

Columns and labels:
Assay in all cases: NCI anticancer screen, dose series, 48 h
786-0 renal = system: 786-0 renal
HOP-62 NSCLC = system: HOP-62 NSCLC
M14 melanoma = system: M14 melanoma
OVCAR-8 ovarian = system: OVCAR-8 ovarian
SF-295 CNS = system: SF-295 CNS
SK-MEL-2 melanoma = system: SK-MEL-2 melanoma
SNB-19 CNS = system: SNB-19 CNS
SNB-75 CNS = system: SNB-75 CNS
HS 578T breast = system: HS 578T breast
PC-3 prostate = system: PC-3 prostate

Row | Compound | TGI (786-0 renal) [µM] | TGI (HOP-62 NSCLC) [µM] | TGI (M14 melanoma) [µM] | TGI (OVCAR-8 ovarian) [µM] | TGI (SF-295 CNS) [µM] | TGI (SK-MEL-2 melanoma) [µM] | TGI (SNB-19 CNS) [µM] | TGI (SNB-75 CNS) [µM] | GI50 (786-0 renal) [µM] | GI50 (HOP-62 NSCLC) [µM] | GI50 (HS 578T breast) [µM] | TGI (HS 578T breast) [µM] | GI50 (M14 melanoma) [µM] | GI50 (OVCAR-8 ovarian) [µM] | GI50 (PC-3 prostate) [µM] | TGI (PC-3 prostate) [µM] | GI50 (SF-295 CNS) [µM] | GI50 (SNB-19 CNS) [µM] | GI50 (SNB-75 CNS) [µM] | GI50 (SK-MEL-2 melanoma) [µM]
1 | CCOC(=O)C1Oc2ccc([N+](=O)[O-])cc2C1(C)O (centres undefined) | > 100 | > 100 | > 100 | > 100 | > 100 | > 100 | > 100 | > 100 | – | – | – | – | – | – | – | – | – | – | – | –
2 | Nc1ccc(C2=Nc3ccccc3SC(c3ccccc3O)C2)cc1 (centres undefined) | 73.6 | > 100 | > 100 | > 100 | > 100 | > 100 | > 100 | 93.3 | – | – | – | – | – | – | – | – | – | – | – | –
3 | [O-][n+]1c2cc(CN3CCOCC3)c(CN3CCOCC3)cc2[n+]([O-])c2c(O)cccc21 | 6.03 | 15.8 | 13.2 | 7.12 | 2.16 | 12.1 | > 40.8 | 21.3 | – | – | – | – | – | – | – | – | – | – | – | –
4 | O=C(O)c1cc(=O)c2cc(C(=O)c3cccs3)c(Cl)c(Cl)c2o1 | > 100 | > 100 | > 100 | > 100 | > 100 | > 100 | > 100 | > 100 | – | – | – | – | – | – | – | – | – | – | – | –
5 | COC1(Cc2ccccc2)C(=O)c2ccccc2N1C(C)=O (centres undefined) | > 100 | > 100 | > 100 | > 100 | > 100 | > 100 | > 100 | > 100 | – | – | – | – | – | – | – | – | – | – | – | –
6 | Oc1ccc(O)c2c1C1(Cl)C(Cl)=C(Cl)C2(Cl)C1(Cl)Cl | 22.4 | 21.2 | 12 | 36.6 | 7.2 | – | 27.3 | 6.84 | 7.84 | 8.27 | 2.07 | 8.09 | 3.03 | 10.3 | 3.14 | 16.4 | 1.67 | 9.45 | 1.52 | –
7 | O=C1NC(SCc2ccc(F)cc2)=N/C1=C/c1cccc(OCc2ccc(Cl)cc2)c1 | 8.8 | – | > 100 | > 100 | > 100 | > 100 | > 100 | > 100 | 2.88 | – | 9.36 | > 100 | 47.4 | 18.8 | > 100 | > 100 | 4.97 | 21.7 | 10.1 | > 100
8 | O=C(O)C1CC2CC(=O)C1C2 (centres undefined) | > 100 | > 100 | > 100 | > 100 | > 100 | > 100 | > 100 | > 100 | – | – | – | – | – | – | – | – | – | – | – | –
9 | COC1C(O)C(C)OC(O[C@@H]2C[C@H]3CC[C@@H]4[C@H](CC[C@]5(C)[C@@H](C6=CC(=O)OC6)CC[C@]45O)[C@@]3(C)[C@H](O)C2)C1O (some centres undefined) | > 100 | 0.0362 | 0.252 | 0.268 | 0.321 | 1.7 | 1.26 | 1.01 | – | – | – | > 100 | – | – | – | – | – | – | – | –
10 | O=C(NC1C=Nc2ccccc2NC1=O)c1ccccc1Cl (centres undefined) | > 100 | > 100 | > 100 | > 100 | > 100 | > 100 | > 100 | > 100 | – | – | – | – | – | – | – | – | – | – | – | –
11 | OC1c2ccccc2C2C(O)c3ccccc3C12 (centres undefined) | > 100 | > 100 | > 100 | > 100 | > 100 | > 100 | – | > 100 | – | – | – | – | – | – | – | – | – | – | – | –
12 | CCOC(=O)c1cn(CC)c2cc3c(cc2c1=O)SCS3 | > 100 | > 100 | > 100 | > 100 | > 100 | > 100 | > 100 | > 100 | – | – | – | – | – | – | – | – | – | – | – | –
13 | O=C1NN=C(c2ccc([N+](=O)[O-])cc2)C1n1nc(-c2ccccc2)c2ccccc2c1=O (centres undefined) | > 100 | > 100 | > 100 | > 100 | > 100 | > 100 | > 100 | > 100 | – | – | – | – | – | – | – | – | – | – | – | –
14 | COc1cc(/C=C\c2ccc(Cl)cc2)cc(OC)c1OC | 20.3 | > 100 | 22.7 | > 100 | 0.218 | 16.3 | > 100 | – | – | – | – | – | – | – | – | – | – | – | – | –
15 | COc1ccc(CN=C(N)N=C(N)N)cc1OC | > 1000 | > 1000 | > 1000 | > 1000 | > 1000 | > 1000 | > 1000 | > 1000 | > 1000 | 602 | > 1000 | > 1000 | > 1000 | 444 | – | – | 194 | 482 | 192 | 859
16 | Nc1ccccc1C#C/C=C\C#Cc1ccccc1F | 23.6 | 20.8 | 18.3 | 67.7 | 16.6 | 47.3 | – | – | 9.28 | 6.66 | 2.09 | 5.1 | 5.39 | 18.5 | 6.8 | > 100 | 3.9 | – | – | 17.3
17 | COc1ccc(/C=N\O[Si](C)(C)C(C)(C)C)cc1O[Si](C)(C)C(C)(C)C | 30.8 | 36 | 36.3 | 45.2 | 30.9 | 31.5 | 33.3 | 37.1 | – | – | – | – | – | – | – | – | – | – | – | –
18 | COC(=O)C1=C(c2ccc(Cl)cc2)C(O)N=C(NN)N1 (centres undefined) | > 100 | > 100 | > 100 | > 100 | > 100 | > 100 | > 100 | – | – | – | – | – | – | – | – | – | – | – | – | –
19 | COc1cc2c(cc1OCCCCCn1c3ccccc3c3ccccc31)N=C[C@@H]1CCCN1C2=O | 3.2 | 3.91 | – | 7.17 | 6.55 | 3.24 | 4.04 | 2.58 | 1.73 | 1.8 | – | – | – | 2.56 | 2.36 | 7.73 | 2.15 | 2.05 | 1.05 | 1.67
20 | O=CN1N=C(c2ccc(Nc3ccnc4cc(Cl)ccc34)cc2)CC1c1ccc(Cl)cc1 (centres undefined) | > 100 | > 100 | > 100 | > 100 | 1.08 | > 100 | > 100 | – | 0.908 | 0.859 | 3.93 | > 100 | 0.622 | 3.22 | 0.475 | > 100 | 0.274 | 1.92 | – | 7.86
